Bounds are passed on as bounds.

The target of the test is USP7 (Homo sapiens, UniProt Q93009). The test can be described thus: USP7 inhibitory potency (Table 1). It is filed as biochemical.
Chain of USP7 (Q93009 whole entry): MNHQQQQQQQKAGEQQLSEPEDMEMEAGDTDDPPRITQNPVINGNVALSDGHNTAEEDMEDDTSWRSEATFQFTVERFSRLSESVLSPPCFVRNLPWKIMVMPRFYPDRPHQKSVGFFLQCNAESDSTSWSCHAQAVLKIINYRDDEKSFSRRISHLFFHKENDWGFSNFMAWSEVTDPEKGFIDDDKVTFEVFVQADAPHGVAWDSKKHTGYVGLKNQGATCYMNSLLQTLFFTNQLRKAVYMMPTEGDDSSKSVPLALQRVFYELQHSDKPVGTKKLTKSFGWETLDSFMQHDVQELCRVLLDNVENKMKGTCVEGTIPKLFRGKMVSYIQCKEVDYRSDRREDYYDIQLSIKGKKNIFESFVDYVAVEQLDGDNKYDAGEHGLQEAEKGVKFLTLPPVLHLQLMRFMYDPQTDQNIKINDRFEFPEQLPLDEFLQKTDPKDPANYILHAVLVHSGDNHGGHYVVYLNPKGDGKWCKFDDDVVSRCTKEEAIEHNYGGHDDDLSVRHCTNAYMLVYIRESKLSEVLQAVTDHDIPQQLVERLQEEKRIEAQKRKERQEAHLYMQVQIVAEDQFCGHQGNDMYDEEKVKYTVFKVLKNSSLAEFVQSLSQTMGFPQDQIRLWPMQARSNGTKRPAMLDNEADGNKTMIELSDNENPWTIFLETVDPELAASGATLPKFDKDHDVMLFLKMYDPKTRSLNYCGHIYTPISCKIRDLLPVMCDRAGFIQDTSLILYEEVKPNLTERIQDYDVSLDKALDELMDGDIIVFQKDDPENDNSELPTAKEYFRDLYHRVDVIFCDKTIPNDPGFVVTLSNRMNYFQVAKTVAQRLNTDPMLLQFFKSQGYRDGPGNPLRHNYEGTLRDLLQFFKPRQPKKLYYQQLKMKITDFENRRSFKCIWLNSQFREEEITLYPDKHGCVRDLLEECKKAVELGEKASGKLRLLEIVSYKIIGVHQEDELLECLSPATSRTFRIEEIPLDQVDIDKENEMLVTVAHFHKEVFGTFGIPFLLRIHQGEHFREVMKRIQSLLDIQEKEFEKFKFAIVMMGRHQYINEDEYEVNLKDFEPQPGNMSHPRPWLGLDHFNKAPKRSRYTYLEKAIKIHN
The IC50 is the concentration that inhibits the measured activity by half. A lower IC50 goes with greater potency. The molecule `CC(=O)NC(C)Cc1cc2nccc(-c3cc(Cl)cc4c3O[C@@H](C(=O)N3CCNCC3)C4)c2s1` (stereo partly drawn) [N-(1-(7-((R)-5-chloro-2-(piperazine-1-carbonyl)-2,3-dihydrobenzofuran-7-yl)thieno[3,2-b]pyridin-2-yl)propan-2-yl)acetamide] had an IC50 of under 1000 nM.
To `CC(Cc1cc2nccc(-c3cc(Cl)cc4c3O[C@@H](C(=O)N3CCNCC3)C4)c2s1)NS(C)(=O)=O` (stereo partly drawn) [N-(1-(7-((R)-5-chloro-2-(piperazine-1-carbonyl)-2,3-dihydrobenzofuran-7-yl)thieno[3,2-b]pyridin-2-yl)propan-2-yl)methanesulfonamide] belongs under 1000 nM.
Regarding `CCC(NC(C)=O)c1cc2nccc(-c3cc(Cl)cc4c3O[C@@H](C(=O)N3CCNCC3)C4)c2s1` (stereo partly drawn) [N-(1-(7-((R)-5-chloro-2-(piperazine-1-carbonyl)-2,3-dihydrobenzofuran-7-yl)thieno[3,2-b]pyridin-2-yl)propyl)acetamide], the IC50 is under 1000 nM.
To `CC(=O)NCC1Cc2nccc(-c3cc(Cl)cc4c3O[C@@H](C(=O)N3CCNCC3)C4)c2C1` (stereo partly drawn) [N-((4-((R)-5-chloro-2-(piperazine-1-carbonyl)-2,3-dihydrobenzofuran-7-yl)-6,7-dihydro-5H-cyclopenta[b]pyridin-6-yl)methyl)acetamide] belongs 1000 to 10000 nM; to `CC(NCc1cc2nccc(-c3cc(Cl)cc4c3O[C@@H](c3onc5c3CNCC5)C4)c2s1)C(F)(F)F` (stereo partly drawn) [N-((7-((R)-5-chloro-2-(4,5,6,7-tetrahydroisoxazolo[4,3-c]pyridin-3-yl)-2,3-dihydrobenzofuran-7-yl)thieno[3,2-b]pyridin-2-yl)methyl)-1,1,1-trifluoropropan-2-amine], under 1000 nM.
`O=C(NCc1ccccc1)c1cc2c(-c3cc(Cl)cc4c3OC(C(=O)N3CCNCC3)C4)ccnc2[nH]1` (centres unmarked) [N-benzyl-4-(5-chloro-2-(piperazine-1-carbonyl)-2,3-dihydrobenzofuran-7-yl)-1H-pyrrolo[2,3-b]pyridine-2-carboxamide] registered an IC50 of 1000 to 10000 nM.
Molecule `CCC(O)c1cc2nccc(-c3cc(Cl)cc4c3O[C@@H](c3onc5c3CN(C)CC5)C4)c2s1` (stereo partly drawn) [drawing 1521, 1-(7-((R)-5-chloro-2-(5-methyl-4,5,6,7-tetrahydroisoxazolo[4,3-c]pyridin-3-yl)-2,3-dihydrobenzofuran-7-yl)thieno[3,2-b]pyridin-2-yl)propan-1-ol] displayed a half-maximal inhibitory concentration (IC50) of under 1000 nM.
Molecule `CCC(O)c1cc2nccc(-c3cc(Cl)cc4c3O[C@@H](c3onc5c3CNCC5)C4)c2o1` (stereo partly drawn) [drawing 1522, 1-(7-((R)-5-chloro-2-(4,5,6,7-tetrahydroisoxazolo[4,3-c]pyridin-3-yl)-2,3-dihydrobenzofuran-7-yl)furo[3,2-b]pyridin-2-yl)propan-1-ol] yielded an IC50 of under 1000 nM.
For the molecule `CCC(O)c1cc2nccc(-c3cc(Cl)cc4c3O[C@@H](c3onc5c3CNCC5)C4)c2s1` (stereo partly drawn) [drawing 1523, 1-(7-((R)-5-chloro-2-(4,5,6,7-tetrahydroisoxazolo[4,3-c]pyridin-3-yl)-2,3-dihydrobenzofuran-7-yl)thieno[3,2-b]pyridin-2-yl)propan-1-ol], the IC50 is under 1000 nM.
The same measure for `CCC(O)c1cc2nccc(-c3cc(Cl)cc4c3O[C@@H](c3onc5c3CNCC5)C4)c2s1` (stereo partly drawn) [drawing 1570, 1-(7-((R)-5-chloro-2-(4,5,6,7-tetrahydroisoxazolo[4,3-c]pyridin-3-yl)-2,3-dihydrobenzofuran-7-yl)thieno[3,2-b]pyridin-2-yl)propan-1-ol]: under 1000 nM; for `CCC(O)c1cc2nccc(-c3cc(Cl)cc4c3O[C@@H](c3onc5c3CN(C)CC5)C4)c2s1` (stereo partly drawn) [drawing 1573, 1-(7-((R)-5-chloro-2-(5-methyl-4,5,6,7-tetrahydroisoxazolo[4,3-c]pyridin-3-yl)-2,3-dihydrobenzofuran-7-yl)thieno[3,2-b]pyridin-2-yl)propan-1-ol]: under 1000 nM.
